In patent US11969459B2, “Therapeutic agent for cardiomyopathy, old myocardial infarction and chronic heart failure” (StemRIM Inc., priority 2017, dated 2024):

Tests used:
J2N-k hamsters [1] = assay: Efficacy evaluation in dilated cardiomyopathy model (Example 1); type: in vivo, hamster
From the text: J2N-k hamsters (18-week-old, male, 20 animals in total), which are model animals of dilated cardiomyopathy, were obtained from Japan SLC, acclimated for 2 weeks, and then used for experiments. J2N-k hamsters spontaneously develop dilated cardiomyopathy due to deletion mutations in the […] gene (specifically, cardiomyocyte shedding and fibrosis begin around 5 weeks of age, cardiomegaly and cardiac dysfunction appear at approximately 20 weeks of age, and eventually they die of congestive heart failure at approximately 1 year. J Biochem. 2003 August; 134(2):269-76). Also, a peptide consisting of amino acid residues 1-44 (SEQ ID NO: 1) of the human HMGB1 protein was chemically synthesized by a solid-phase method. Hereinafter, the peptide is referred to as the HMGB1 peptide (1-44), and is abbreviated as “1-44” in the drawing corresponding to the Examples.
J2N-k hamsters were divided into the HMGB1 peptide (1-44)-treated (n=10) and PBS-treated (control, n=10) groups, and treatment was begun at 20 weeks of age (body weight about 120 g). Administration of the test substance was carried out by injecting a solution of the HMGB1 peptide (1-44), which has been adjusted to a concentration of 1 mg/ml with PBS as the vehicle, into the external jugular vein at a dose of 3 ml/kg (3 mg/kg as the peptide dosage) once a day for four consecutive days. In the control group, PBS was injected into the external jugular vein at a dose of 3 ml/kg once a day for four consecutive days. At 6 weeks after administration, a thoracotomy was performed under deep anesthesia, and the heart was removed. The mid portion of the heart was divided for cryopreservation and for paraffin fixation, and a histopathological examination was performed. Molecular biological studies were also performed using apical myocardium to evaluate effects of administration of the HMGB1 peptide (1-44).
Echocardiography was performed prior to dosing, and at 4 and 6 weeks after dosing; and left ventricular end-diastolic diameter (LVDd), left ventricular end-systolic diameter (LVDs), and left ventricular ejection fraction (LVEF) were measured and calculated to perform a cardiac function assessment. […]
Periodic Acid Schiff (PAS) staining of the myocardial tissue sections was performed to measure the short diameter of cardiomyocytes retaining a nuclear architecture, and the average of the measurements was obtained. This measurement was performed in five different fields and the mean value was calculated.
Immunostaining of the myocardial tissue sections was performed using antibodies against PDGFRα and CD29, which are surface markers of mesenchymal stem cells, to assess whether accumulation of mesenchymal stem cells was observed. Staining of the nuclei was performed using DAPI. […]
The structure of cardiomyocytes was observed by electron microscopy. Specifically, the full-thickness myocardium of the mid-portion was sampled, and subjected to pre-fixation with ½ Karnofsky, post-fixation with 2% osmium tetroxide, block-staining with 0.5% uranium acetate aqueous solution and dehydration with ethanol, and then embedded and polymerized by infiltrating epoxy resin (Queto1812). Ultrathin sections (70-110 nm) were made, and electron staining with uranium acetate and a lead stain solution was performed, and then observed by electron microscopy (H-7500, Hitachi High Technologies).

J2N-k hamsters [2] = assay: Efficacy evaluation in dilated cardiomyopathy model, long-term observations (Example 2); type: in vivo, hamster; details: vs PBS group
Protocol: As in Example 1, twenty J2N-k hamsters were prepared and divided into the HMGB1 peptide (1-44)-treated group (n=11) and the PBS-treated group (control, n=9), and treatment was begun at 20 weeks of age. Administration of the test substance was carried out by injecting a solution of the HMGB1 peptide (1-44), which has been adjusted to a concentration of 1 mg/ml with PBS as the vehicle, into the external jugular vein at a dose of 3 ml/kg (3 mg/kg as the peptide dosage) once daily for four consecutive days. In the control group, PBS was injected into the external jugular vein at a dose of 3 ml/kg once a day for four consecutive days. Evaluation of the cardiac function and survival rate was continued thereafter while rearing the hamsters under normal conditions.
Echocardiography was performed prior to dosing, at 4 weeks after dosing, and every 2 weeks thereafter to measure LVEF.
After the last dose, the animals were kept under normal conditions and the survival rate was evaluated.

[3] = system: old myocardial infarction model rats; assay: Efficacy evaluation in old myocardial infarction model rats (Example 3); type: in vivo, SD rats
Protocol: SD rats (7-week-old, male, body weight of approximately 250 g) were anesthetized with the inhalation anesthetic sevofrane (or isoflurane) and intubated endotracheally after adequate suppression was achieved, and deep anesthesia was maintained with the inhalation anesthetic. A thoracotomy was performed in the supine position at the left fourth intercostal space, and the proximal portion of the left anterior descending coronary artery was ligated with 6-0 prolene sutures to create a broad-area myocardial infarction model. The cardiac function was evaluated by echocardiography 2 weeks after the infarction was made, and cases in which extensive infarction was obtained (LVEF<50%) were used as old myocardial infarction model rats (17 animals in total). Similar to the above examples, the HMGB1 peptide (1-44) consisting of SEQ ID NO: 1 was used.
The old myocardial infarction model rats were divided into the HMGB1 peptide (1-44)-treated group (n=9) and the PBS-treated group (control, n=8), and treatment was begun 2 weeks after the infarction was made. Administration of the test substance was carried out by injecting a solution of the HMGB1 peptide (1-44), which has been adjusted to a concentration of 1 mg/ml with PBS as vehicle, into the femoral veins at a dose of 3 ml/kg (3 mg/kg as the peptide dosage) once daily for four consecutive days. In the control group, PBS was injected at a dose of 3 ml/kg once a day via the femoral vein for four consecutive days. At 4 weeks after dosing, the heart was removed by re-thoracotomy under deep anesthesia. […] Both groups were comparatively studied using cardiac physiological, histopathological, and molecular biological techniques to evaluate the effects of administering the HMGB1 peptide (1-44). The condition after 2 weeks (14 days) or more have passed following the onset of myocardial infarction in model rats is equivalent to the condition after 30 days or more have passed following the onset of myocardial infarction in humans.
Echocardiography was performed at 1, 2, and 4 weeks after dosing, and the left ventricular end-diastolic diameter (LVDd), left ventricular end-systolic diameter (LVDs), and left ventricular ejection fraction (LVEF) were measured and calculated to perform a cardiac function assessment.
Myocardial tissue sections were stained with Sirius red, and the proportion of stain-positive area in the total area of the left ventricular myocardium was calculated as the percentage of fibrosis (%).
Von-Willebrand factors were stained at the infarct border to determine the number of blood vessels (number of vascular endothelial cells). This measurement was performed in 10 different fields and the mean value was calculated.
Periodic Acid Schiff (PAS) staining was performed at the infarct border, and the short diameter of cardiomyocytes retaining a nuclear architecture at the infarct border was measured, and the average of the measurements was obtained. This measurement was performed in 10 different fields and the mean value was calculated.
Staining of the nuclei was performed using DAPI.

[4] = system: Dahl salt-sensitive rats (DIS/Eis rats); assay: Efficacy evaluation in hypertensive cardiomyopathy model (Example 4); type: in vivo, rat; details: High-1-44 vs High-PBS group
From the text: The Dahl salt-sensitive rats (hereafter also referred to as DIS/Eis rats) were used in the experiments. DIS/Eis rats are hypertensive when fed with a high-salt diet and are a model that develop heart failure at a high incidence (e.g., when fed with a diet supplemented with 8% NaCl from 6 weeks of age, blood pressure reaches 250 mm Hg at 9 weeks of age, death begin to appear from 12 weeks of age, and death is highly probable by 16 weeks of age).
Ten DIS/Eis rats (6-weeks-old, male, body weight about 200 g, Japan SLC) were prepared and divided into two groups, a high-salinity diet group (n=7) and a low-salinity diet group (n=3), and feeding was continued until 15 weeks of age in which the former was fed with a diet supplemented with 8% NaCl and the latter was fed with a diet supplemented with 0.3% NaCl. Aside from the meals, nothing interfered with free movement and they were kept clean and rested without restriction on drinking water, feeding, and such in their cages.
At 11 weeks of age, the high-salinity diet group (n=7) was divided into the HMGB1 peptide (1-44)-treated group (n=3) and the control group (n=4), and treatment was initiated. Administration of the test substance was carried out by injecting a solution of the HMGB1 peptide (1-44), which has been adjusted to a concentration of 1 mg/ml with PBS as the vehicle, into the tail vein at a dose of 3 ml/kg (3 mg/kg as the peptide dosage) once daily for four consecutive days. The control group was injected with PBS at a dose of 3 ml/kg once a day via the tail vein for four consecutive days. Similar to the control group, the low-salinity diet group (n=3) also received PBS via the tail vein for four consecutive days. At 4 weeks after dosing (at 15 weeks, of age), hearts were removed from the rats by thoracotomy under general anesthesia, and their weight was measured, and then histological sections of the left ventricular myocardial cross sections were prepared at the papillary muscle level and subjected to histological analysis. In the following description, the HMGB1 peptide (1-44) administration group fed with a high-salinity diet is abbreviated as the “High-1-44 group”; the control group fed with a high-salinity diet is abbreviated as the “High-PBS group” and the low-salinity diet group is abbreviated as the “Low-PBS group”.
At 15 weeks of age, hearts were removed from rats in each group and weighed. […]
Myocardial tissue sections were stained with Sirius red, and the proportion of stain-positive area in the area of the whole heart or the left ventricle was calculated as the percentage of fibrosis (%).

[5] = 4 and 6 weeks after dosing, 3 mg/kg i.v. x4 days, vs PBS group
[6] = apical myocardium, vs PBS group
[7] = 4 weeks after dosing, vs PBS group
[8] = immunostaining of myocardial tissue
[9] = infarct border, vs PBS group, P=0.05

In the case of “HMGB1 peptide (1-44): peptide consisting of amino acid residues 1-44 (SEQ ID NO: 1) of the human HMGB1 protein, chemically synthesized by a solid-phase method (MGKGDPKKPRGKMSSYAFFVQTCREEHKKKHPDASVNFSEFSKK)”, the “left ventricular end-diastolic diameter (LVDd)” value (J2N-k hamsters [1]; [5]) was “no significant differences”, the “left ventricular end-systolic diameter (LVDs)” value (J2N-k hamsters [1]; [5]) was “no significant differences” and the “TSG-6 expression level (RT-PCR)” value (J2N-k hamsters [1]; [6]) was “significantly higher”. The “VEGF expression level (RT-PCR)” value (J2N-k hamsters [1]; [6]) was “significantly higher”, the “short diameter of cardiomyocytes (PAS staining)” value (J2N-k hamsters [1]; both subendocardial layer and mid layer, 6 weeks after administration, vs PBS group) was “significantly smaller” and the “left ventricular ejection fraction (LVEF)” value (J2N-k hamsters [1]; echocardiography 4 and 6 weeks after dosing, 3 mg/kg external jugular vein once a day for four days, compared with PBS group) was “significantly higher”. The “recruitment of cells positive for both PDGFRα and CD29 to the myocardial tissue” value (J2N-k hamsters [1]; immunostaining of myocardial tissue sections) was “recruited”, the “number of PDGFRα-positive and CD29-positive cells in the myocardial tissue” value (J2N-k hamsters [1]; immunostaining, vs PBS group) was “significantly more” and the “mitochondrial cristae structure of cardiomyocytes (electron microscopy)” value (J2N-k hamsters [1]; loss of cristae structure in PBS group) was “cristae structure was maintained”. For the same substance, the “number of blood vessels (anti-CD31 immunostaining), mid layer” value (J2N-k hamsters [1]; mid layer, 6 weeks after administration, vs PBS group) was “significantly higher”, the “percentage of Sirius red stain-positive area (myocardial fibrosis)” value (J2N-k hamsters [1]; myocardial tissue sections 6 weeks after administration, vs PBS group) was “significantly smaller” and the “number of blood vessels (anti-CD31 immunostaining), subendocardial layer” value (J2N-k hamsters [1]; subendocardial layer, 6 weeks after administration, vs PBS group) was “tended to be higher”. For the same substance, the “survival rate (viability)” value (J2N-k hamsters [2]; long-term observations) was “tendency toward higher viability”, the “LVEF, long-term” value (J2N-k hamsters [2]; until 6 weeks after administration, 3 mg/kg i.v. x4 days) was “remained significantly higher” and the “left ventricular ejection fraction (LVEF)” value ([3]; 4 weeks after dosing, 3 mg/kg femoral vein once daily for four days, begun 2 weeks after infarction, vs PBS group) was “significantly higher”. The “left ventricular end-diastolic diameter (LVDd)” value [3, 7] was “smaller values”, the “left ventricular end-systolic diameter (LVDs)” value [3, 7] was “smaller values” and the “recruitment of cells positive for both PDGFRα and CD90 near the infarct border” value [3, 8] was “recruited”. For the same substance, the “recruitment of cells positive for both PDGFRα and CD105 near the infarct border” value [3, 8] was “recruited”, the “PDGFRα-positive and CD90-positive cells in the vicinity of the infarct border” value ([3]; immunostaining, vs PBS group) was “more” and the “number of vessels at the infarct border (von-Willebrand factor staining)” value [3, 9] was “significantly more vessels”. For the same substance, the “short diameter of cardiomyocytes at the infarct border (PAS staining)” value [3, 9] was “significantly smaller”, the “percentage of Sirius red stain-positive area (myocardial fibrosis)” value ([3]; left ventricular myocardium, 4 weeks after dosing, vs PBS group) was “significantly smaller” and the “average improvement in LVEF with respect to before the dosing” value ([3]; up to 4 weeks after dosing) was “about 7%”. The “end-diastolic left ventricular anterior wall thickness (LVAWd)” value ([4]; 15 weeks of age) was “smaller”, the heart weight ([4]; 15 weeks of age, high-salinity diet, 3 mg/kg tail vein once daily for four days from 11 weeks of age) was “smaller heart weights” and the “percentage of fibrosis in the left ventricle” value ([4]; left ventricle) was “smaller”. For the same substance, the “percentage of Sirius red-stained positive area (percentage of fibrosis) in the whole heart” value ([4]; whole heart) was “smaller”.
